Molecular target: Btk (Homo sapiens, UniProt Q06187)
Experiment: Btk in vitro inhibitory activity, acellular kinase assay (TR-FRET)
Type: biochemical
Description: Btk kinase activity is determined using a time-resolved fluorescence resonance energy transfer (TR-FRET) methodology. Measurements are performed in a reaction volume of 50 μL using 96-well assay plates. Kinase enzyme, inhibitor, ATP (at the Km for the kinase), and 1 μM peptide substrate (Biotin-AVLESEEELYSSARQ-NH2) are incubated in a reaction buffer composed of 20 mM Tris, 50 mM NaCl, MgCl2 (5-25 mM depending on the kinase), MnCl2 (0-10 mM), 1 mM DTT, 0.1 mM EDTA, 0.01% bovine serum albumin, 0.005% Tween-20, and 10% DMSO at pH 7.4 for one hour. The reaction is quenched by the addition of 1.2 equivalents of EDTA (relative to divalent cation) in 25 μL of 1× Lance buffer (Perkin-Elmer). Streptavidin-APC (Perkin-Elmer) and Eu-labeled p-Tyr100 antibody (Perkin-Elmer) in 1× Lance buffer are added in a 25 μL volume to give final concentrations of 100 nM and 2.5 nM, respectively, and the mixture is allowed to incubate for one hour. The TR-FRET signal is measured on a multimode plate reader with an excitation wavelength (λEx) of 330 nm and detection wavelengths (λEm) of 615 and 665 nm. Activity is determined by the ratio of the fluorescence at 665 nm to that at 615 nm. For each compound, enzyme activity is measured at various concentrations of compound. Negative control reactions are performed in the absence of inhibitor in replicates of six, and two no-enzyme controls were used to determine baseline fluorescence levels. Inhibition constants, Ki(app), are obtained using the program BatchKi (Kuzmic et al. (2000), Anal. Biochem. 286:45-50). IC50s are obtained according to the equation: IC50={Ki(app)/(1+[ATP]/Km^ATP)}+[E]total/2;
For all kinases, [ATP]=Km^ATP, [Btk]total=0.5 nM and [Lck]total=6 nM.

Sequence of Btk (Q06187 whole entry): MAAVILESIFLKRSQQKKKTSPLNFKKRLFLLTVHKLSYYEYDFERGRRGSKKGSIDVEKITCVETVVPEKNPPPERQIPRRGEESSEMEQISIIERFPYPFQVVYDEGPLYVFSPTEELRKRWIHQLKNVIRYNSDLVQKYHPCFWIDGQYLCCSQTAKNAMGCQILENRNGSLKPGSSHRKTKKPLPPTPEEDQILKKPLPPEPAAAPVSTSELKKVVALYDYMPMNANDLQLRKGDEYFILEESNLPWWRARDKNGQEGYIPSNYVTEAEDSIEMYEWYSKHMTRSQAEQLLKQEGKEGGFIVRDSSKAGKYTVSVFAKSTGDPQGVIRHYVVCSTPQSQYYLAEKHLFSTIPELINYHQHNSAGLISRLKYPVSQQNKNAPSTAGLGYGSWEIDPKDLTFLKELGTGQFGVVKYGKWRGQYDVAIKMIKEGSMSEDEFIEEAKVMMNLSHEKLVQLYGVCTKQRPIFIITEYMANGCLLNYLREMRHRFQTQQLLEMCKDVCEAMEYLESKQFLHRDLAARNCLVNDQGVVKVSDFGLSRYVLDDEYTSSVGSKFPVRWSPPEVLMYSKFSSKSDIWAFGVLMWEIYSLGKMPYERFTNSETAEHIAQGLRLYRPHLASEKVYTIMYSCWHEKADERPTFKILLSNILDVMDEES

Structure (SMILES)	IC50 [nM]
CN(C/C=C/C(=O)N1CC[C@@H](n2nc(-c3ccc(Oc4ccccc4)cc3)c3c(N)ncnc32)C1)[C@@H]1CCOC1 [Example 2b, (E)-1-((R)-3-(4-amino-3-(4-phenoxyphenyl)-1H-pyrazolo[3,4-d]pyrimidin-1-yl)pyrrolidin-1-yl)-4-(methyl((R)-tetrahydrofuran-3-yl)amino)but-2-en-1-one]	< 100
Nc1ncnc2c1c(-c1ccc(Oc3ccccc3)cc1)nn2[C@@H]1CCN(C(=O)/C=C/CN[C@H]2CCOC2)C1 [Example 2e, (E)-1-((R)-3-(4-amino-3-(4-phenoxyphenyl)-1H-pyrazolo[3,4-d]pyrimidin-1-yl)pyrrolidin-1-yl)-4-((S)-tetrahydrofuran-3-ylamino)but-2-en-1-one]	< 100
Nc1ncnc2c1c(-c1ccc(Oc3ccccc3)cc1)nn2[C@@H]1CCCN(C(=O)/C=C/CN[C@@H]2CCOC2)C1 [Example 2i, (E)-1-((R)-3-(4-amino-3-(4-phenoxyphenyl)-1H-pyrazolo[3,4-d]pyrimidin-1-yl)piperidin-1-yl)-4-((R)-tetrahydrofuran-3-ylamino)but-2-en-1-one]	< 100
CN(C/C=C/C(=O)N1CCC[C@@H](n2nc(-c3ccc(Oc4ccccc4)cc3)c3c(N)ncnc32)C1)C1COC1 [Example 2m, (R,E)-1-(3-(4-amino-3-(4-phenoxyphenyl)-1H-pyrazolo[3,4-d]pyrimidin-1-yl)piperidin-1-yl)-4-(methyl(oxetan-3-yl)amino)but-2-en-1-one]	< 100
COCCN(C/C=C/C(=O)N1CC[C@@H](n2nc(-c3ccc(Oc4ccccc4)cc3)c3c(N)ncnc32)C1)C1CC1 [Example 2p, (R,E)-1-(3-(4-amino-3-(4-phenoxyphenyl)-1H-pyrazolo[3,4-d]pyrimidin-1-yl)pyrrolidin-1-yl)-4-(cyclopropyl(2-methoxyethyl)amino)but-2-en-1-one]	< 100
CC(C)N(C/C=C/C(=O)N1CC[C@@H](n2nc(-c3ccc(Oc4ccccc4)cc3)c3c(N)ncnc32)C1)C1CC1 [Example 2q, (R,E)-1-(3-(4-amino-3-(4-phenoxyphenyl)-1H-pyrazolo[3,4-d]pyrimidin-1-yl)pyrrolidin-1-yl)-4-(cyclopropyl(isopropyl)amino)but-2-en-1-one]	< 100
COCCN(C/C=C/C(=O)N1CCC[C@@H](n2nc(-c3ccc(Oc4ccccc4)cc3)c3c(N)ncnc32)C1)C1CC1 [Example 2s, (R,E)-1-(3-(4-amino-3-(4-phenoxyphenyl)-1H-pyrazolo[3,4-d]pyrimidin-1-yl)piperidin-1-yl)-4-(cyclopropyl(2-methoxyethyl)amino)but-2-en-1-one]	< 100
CC(C)N(C/C=C/C(=O)N1CCC[C@@H](n2nc(-c3ccc(Oc4ccccc4)cc3)c3c(N)ncnc32)C1)C1CC1 [Example 2t, (R,E)-1-(3-(4-amino-3-(4-phenoxyphenyl)-1H-pyrazolo[3,4-d]pyrimidin-1-yl)piperidin-1-yl)-4-(cyclopropyl(isopropyl)amino)but-2-en-1-one]	< 100
CN(C/C=C/C(=O)N1CC[C@@H](n2nc(-c3ccc(Oc4ccccc4)cc3)c3c(N)ncnc32)C1)C1CC1 [Example 2u, (R,E)-1-(3-(4-amino-3-(4-phenoxyphenyl)-1H-pyrazolo[3,4-d]pyrimidin-1-yl)pyrrolidin-1-yl)-4-(cyclopropyl(methyl)amino)but-2-en-1-one]	< 100
CCN(C/C=C/C(=O)N1CC[C@@H](n2nc(-c3ccc(Oc4ccccc4)cc3)c3c(N)ncnc32)C1)C1CC1 [Example 2v, (R,E)-1-(3-(4-amino-3-(4-phenoxyphenyl)-1H-pyrazolo[3,4-d]pyrimidin-1-yl)pyrrolidin-1-yl)-4-(cyclopropyl(ethyl)amino)but-2-en-1-one]	< 100
Nc1ncnc2c1c(-c1ccc(Oc3ccccc3)cc1)nn2[C@@H]1CCN(C(=O)/C=C/CNC2CCCCC2)C1 [Example 2x, (R,E)-1-(3-(4-amino-3-(4-phenoxyphenyl)-1H-pyrazolo[3,4-d]pyrimidin-1-yl)pyrrolidin-1-yl)-4-(cyclohexylamino)but-2-en-1-one]	< 100
CN(C/C=C/C(=O)N1CC[C@@H](n2nc(-c3ccc(Oc4ccccc4)cc3)c3c(N)ncnc32)C1)C1CCCC1 [Example 2y, (R,E)-1-(3-(4-amino-3-(4-phenoxyphenyl)-1H-pyrazolo[3,4-d]pyrimidin-1-yl)pyrrolidin-1-yl)-4-(cyclopentyl(methyl)amino)but-2-en-1-one]	< 100

The remaining lines, values ahead:

IC50 [nM]	Structure (SMILES)
< 100	Nc1ncnc2c1c(-c1ccc(Oc3ccccc3)cc1)nn2[C@@H]1CCN(C(=O)/C=C/CN[C@@H]2CCOC2)C1 [Example 2c, (E)-1-((R)-3-(4-amino-3-(4-phenoxyphenyl)-1H-pyrazolo[3,4-d]pyrimidin-1-yl)pyrrolidin-1-yl)-4-((R)-tetrahydrofuran-3-ylamino)but-2-en-1-one]
< 100	CN(C/C=C/C(=O)N1CC[C@@H](n2nc(-c3ccc(Oc4ccccc4)cc3)c3c(N)ncnc32)C1)[C@H]1CCOC1 [Example 2d, (E)-1-((R)-3-(4-amino-3-(4-phenoxyphenyl)-1H-pyrazolo[3,4-d]pyrimidin-1-yl)pyrrolidin-1-yl)-4-(methyl((S)-tetrahydrofuran-3-yl)amino)but-2-en-1-one]
< 100	CN(C/C=C/C(=O)N1CC[C@@H](n2nc(-c3ccc(Oc4ccccc4)cc3)c3c(N)ncnc32)C1)C1COC1 [Example 2f, (R,E)-1-(3-(4-amino-3-(4-phenoxyphenyl)-1H-pyrazolo[3,4-d]pyrimidin-1-yl)pyrrolidin-1-yl)-4-(methyl(oxetan-3-yl)amino)but-2-en-1-one]
< 100	Nc1ncnc2c1c(-c1ccc(Oc3ccccc3)cc1)nn2[C@@H]1CCN(C(=O)/C=C/CNC2COC2)C1 [Example 2g, (R,E)-1-(3-(4-amino-3-(4-phenoxyphenyl)-1H-pyrazolo[3,4-d]pyrimidin-1-yl)pyrrolidin-1-yl)-4-(oxetan-3-ylamino)but-2-en-1-one]
< 100	CN(C/C=C/C(=O)N1CCC[C@@H](n2nc(-c3ccc(Oc4ccccc4)cc3)c3c(N)ncnc32)C1)[C@@H]1CCOC1 [Example 2h, (E)-1-((R)-3-(4-amino-3-(4-phenoxyphenyl)-1H-pyrazolo[3,4-d]pyrimidin-1-yl)piperidin-1-yl)-4-(methyl((R)-tetrahydrofuran-3-yl)amino)but-2-en-1-one]
< 100	CN(C/C=C/C(=O)N1CCC[C@@H](n2nc(-c3ccc(Oc4ccccc4)cc3)c3c(N)ncnc32)C1)[C@H]1CCOC1 [Example 2j, (E)-1-((R)-3-(4-amino-3-(4-phenoxyphenyl)-1H-pyrazolo[3,4-d]pyrimidin-1-yl)piperidin-1-yl)-4-(methyl((S)-tetrahydrofuran-3-yl)amino)but-2-en-1-one]
< 100	Nc1ncnc2c1c(-c1ccc(Oc3ccccc3)cc1)nn2[C@@H]1CCCN(C(=O)/C=C/CN[C@H]2CCOC2)C1 [Example 2k, (E)-1-((R)-3-(4-amino-3-(4-phenoxyphenyl)-1H-pyrazolo[3,4-d]pyrimidin-1-yl)piperidin-1-yl)-4-((S)-tetrahydrofuran-3-ylamino)but-2-en-1-one]
< 100	Nc1ncnc2c1c(-c1ccc(Oc3ccccc3)cc1)nn2[C@@H]1CCCN(C(=O)/C=C/CNC2COC2)C1 [Example 2n, (R,E)-1-(3-(4-amino-3-(4-phenoxyphenyl)-1H-pyrazolo[3,4-d]pyrimidin-1-yl)piperidin-1-yl)-4-(oxetan-3-ylamino)but-2-en-1-one]
< 100	Nc1ncnc2c1c(-c1ccc(Oc3ccccc3)cc1)nn2[C@@H]1CCCN(C(=O)/C=C/CN(C2CC2)C2CC2)C1 [Example 2r, (R,E)-1-(3-(4-amino-3-(4-phenoxyphenyl)-1H-pyrazolo[3,4-d]pyrimidin-1-yl)piperidin-1-yl)-4-(dicyclopropylamino)but-2-en-1-one]
< 100	CN(C/C=C/C(=O)N1CC[C@@H](n2nc(-c3ccc(Oc4ccccc4)cc3)c3c(N)ncnc32)C1)C1CCCCC1 [Example 2w, (R,E)-1-(3-(4-amino-3-(4-phenoxyphenyl)-1H-pyrazolo[3,4-d]pyrimidin-1-yl)pyrrolidin-1-yl)-4-(cyclohexyl(methyl)amino)but-2-en-1-one]
< 100	Nc1ncnc2c1c(-c1ccc(Oc3ccccc3)cc1)nn2[C@@H]1CCN(C(=O)/C=C/CNC2CCCC2)C1 [Example 2z, (R,E)-1-(3-(4-amino-3-(4-phenoxyphenyl)-1H-pyrazolo[3,4-d]pyrimidin-1-yl)pyrrolidin-1-yl)-4-(cyclopentylamino)but-2-en-1-one]
< 100	Nc1ncnc2c1c(-c1ccc(Oc3ccccc3)cc1)nn2[C@@H]1CCN(C(=O)/C=C/CNC2CC2)C1 [Example 3a, (R,E)-1-(3-(4-amino-3-(4-phenoxyphenyl)-1H-pyrazolo[3,4-d]pyrimidin-1-yl)pyrrolidin-1-yl)-4-(cyclopropylamino)but-2-en-1-one]

Source: patent US9138436B2, “Inhibitors of Bruton's tyrosine kinase” (PHARMACYCLICS LLC, priority 2011, dated 2015)
